Values of other authors, collected in patent US20050227929A1, “Combination therapy comprising a Cox-2 inhibitor and an antineoplastic agent” (priority 2003, published 2005).
Like-named read-outs stand apart in the source and are kept apart here. Where a SMILES comes first, the peptide text is derived from it.

Key:
[1] = human, in vivo
[2] = tested on: tumors; conditions: tumor-bearing mice received 225-300 μg/kg over 5 days

CNC(=O)c1cc(Oc2ccc(NC(=O)Nc3ccc(Cl)c(C(F)(F)F)c3)cc2)ccn1 [BAY-439006]
Toxicity (dosage listed: 50-400 mg/day): well tolerated

N[C@@H](CCC(=O)O)C(=O)N[C@@H](Cc1c[nH]c2ccccc12)C(=O)O [IM 862, L-alpha-glutamyl-L-tryptophan] (H-Glu-Trp-OH)
Toxicity (in vivo): no hematological

COc1ccc(NS(=O)(=O)c2c(F)c(F)c(F)c(F)c2F)cc1F [T138067, 2,3,4,5,6-pentafluoro-N-(3-fluoro-4-methoxyphenyl)benzenesulfonamide]
Dosage: tolerability (up to 440 mg/m^2 by 3-hour infusion every 4 weeks): well tolerated

CC(C)[C@H]1C(=O)N[C@@H](CCCN=C(N)N)C(=O)NCC(=O)N[C@@H](CC(=O)O)C(=O)N[C@H](Cc2ccccc2)C(=O)N1C [cilengitide, cyclo(L-arginylglycyl-L-alpha-aspartyl-D-phenylalanyl-N-methyl-L-valyl)]
Toxicity [1]: well tolerated and safe

Cc1occc(=O)c1[O-].Cc1occc(=O)c1[O-].Cc1occc(=O)c1[O-].[Ga+3] [gallium maltolate]
Toxicity (in vivo): good safety

Cc1ccc2nc(N)[nH]c(=O)c2c1Sc1ccncc1 [nolatrexed, 2-amino-6-methyl-5-(4-pyridinylthio)-4(1H)-quinazolinone]
Dosage: tolerability [1]: tumors is well

O=S1(=O)CCN(CN2CCS(=O)(=O)NC2)CN1 [taurolidine, 4,4′-methylenebis[tetrahydro-2H-1,2,4-thiadiazine]1,1,1′,1′-tetraoxide]
Dosage: tolerability (in vivo, 350 mg/kg/day): well tolerated

Nc1ccn([C@@H]2O[C@H](CO)[C@@H](O)/C2=C\F)c(=O)n1 [tezacitabine]
Toxicity [1]: generally

B1: SB-408075 (conjugate, chains of the INN, looked up)
VH: QVQLVQSGAEVKKPGETVKISCKASDYTFTYYGMNWVKQAPGQGLKWMGWIDTTTGEPTYAQKFQGRIAFSLETSASTAYLQIKSLKSEDTATYFCARRGPYNWYFDVWGQGTTVTVSS
VL: DIVMTQSPLSVPVTPGEPVSISCRSSKSLLHSNGNTYLYWFLQRPGQSPQLLIYRMSNLVSGVPDRFSGSGSGTAFTLRISRVEAEDVGVYYCLQHLEYPFTFGPGTKLELK
modifications: DM1 maytansinoid payload
complete responses seen in % of animals [2]: in 100% of
